Data: US8236756B2, “Prodrugs cleavable by CD26” (Consejo Superior de Investigaciones Clentificas (CSIC), priority 2003, dated 2012)

How the values were obtained:
purified CD26 = target: T1, purified CD26 (Homo sapiens, UniProt P27487); assay: Conversion of peptide prodrugs to parent compound by purified CD26 (HPLC); format: biochemical; conditions: for Conversion % to parent compound by purified CD26, 4 h / Conversion % to parent compound by purified CD26, 24 h / Conversion % to parent compound by purified CD26, 1 h: Table 1; for % conversion to parent compound by purified CD26, 1 h / % conversion to parent compound by purified CD26, 4 h / % conversion to parent compound by purified CD26, 24 h: Table 2
T1 construct: made in house
T1 sequence (P27487 whole entry): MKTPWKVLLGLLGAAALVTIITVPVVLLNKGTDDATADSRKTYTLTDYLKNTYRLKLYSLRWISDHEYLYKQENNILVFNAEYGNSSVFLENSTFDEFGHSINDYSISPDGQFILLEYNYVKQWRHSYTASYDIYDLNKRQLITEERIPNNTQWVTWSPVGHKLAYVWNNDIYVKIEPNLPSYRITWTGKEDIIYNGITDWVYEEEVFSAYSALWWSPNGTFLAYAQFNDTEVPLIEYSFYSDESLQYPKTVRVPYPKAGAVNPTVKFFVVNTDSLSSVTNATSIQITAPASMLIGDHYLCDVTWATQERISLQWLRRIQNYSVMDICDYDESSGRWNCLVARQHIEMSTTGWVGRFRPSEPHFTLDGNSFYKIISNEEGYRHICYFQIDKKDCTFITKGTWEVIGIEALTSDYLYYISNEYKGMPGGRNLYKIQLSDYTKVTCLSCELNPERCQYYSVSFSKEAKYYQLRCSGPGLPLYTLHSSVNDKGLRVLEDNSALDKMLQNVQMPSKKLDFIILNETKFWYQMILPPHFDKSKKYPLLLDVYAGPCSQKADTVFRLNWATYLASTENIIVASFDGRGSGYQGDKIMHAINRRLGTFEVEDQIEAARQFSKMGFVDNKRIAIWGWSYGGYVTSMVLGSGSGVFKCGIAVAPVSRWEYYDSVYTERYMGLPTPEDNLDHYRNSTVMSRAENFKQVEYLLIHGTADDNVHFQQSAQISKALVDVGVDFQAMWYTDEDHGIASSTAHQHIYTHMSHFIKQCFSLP
Procedure: To reveal whether CD26 recognizes such synthetic di/tripeptide derivatives of lipophilic nucleoside analogues as a substrate, 50 μM CAM-405 or CAM-431 was exposed to 5.7 mUnits of purified CD26, and the conversion of CAM-405 or CAM-431 to respectively CAM-212 or CAM-403 (Val-NAP-TSAO) was recorded in function of incubation time by HPLC analysis. […] Within the first 10 min of the reaction, at least 20% of CAM-405 had been converted to CAM-212, fifty percent of the TSAO dipeptide derivative was converted to CAM-212 within 30 min of the reaction and ˜67% of CAM-405 was hydrolyse after 60 min. Thus, the reaction rate started already to slow down after the first 10 min of drug exposure (FIG. 2). Most likely, the release of the reaction product Val-Pro dose-dependently feed-back inhibited the CD26-catalysed dipeptidyl-peptidase reaction. […] Thus, in the presence of 50 μM CAM-405, hydrolysis of 50% of CAM-405 to CAM-212 results in the appearance of 25 μM Val-Pro, that is a concentration that (feed-back) inhibits the CD26 reaction by ˜50%. These findings explain why the CD26-catalysed reaction levels-off shortly after the start of the exposure of the drug to CD26. […] Thus, a further level of modulation of the rate of prodrug release can be introduced by choosing a dipeptide moiety that competes for the active site of CD26, until the dipeptide has diffused from the tissue wherein CD26 is present. The inhibitory activity of any dipeptide can be evaluated by the above mentioned assay.
The conversion rate in function of time is given in Table 1 for NAP-TSAO-dipeptides where the dipeptide consists of: Val-Pro, Val-D-Pro, Asp-Pro, Lys-Pro, Tyr-Pro, Gly-Pro, Val-4-hydroxyPro, Gly-3,4-dihydroxyPro, but also Val-Gly, Val-Ala, Val-Leu and Val-Phe. It is clear that the conversion rate to the parent NAP-TSAO differs depending the nature of the dipeptide. Also, when the terminal amine of the dipeptide has been blocked by a lipophilic group (i.e. methyl, Z or Fmoc), the prodrug looses measurable substrate activity for CD26.
The conversion rate in function of time is given in Table 2 for tetrapeptide NAP-TSAO compounds where the tetrapeptide consists of: Val-Pro-Val-Pro [SEQ ID no:6] (CAM 467), Val-Ala-Val-Pro [SEQ ID no:7] (CAM 473) or Lys-Pro-Asp-Pro [SEQ ID no:8] (CAM 477). […] Only traces of dipeptide prodrug (CAM 405) is seen as intermediate in the conversion of the tetrapeptide CAM 473 to NAP-TSAO.
All enzyme activity assays were performed in Eppendorf tubes on a heating block at 37° C. To each tube were added 32 μl CD26 (at a final concentration of 1.5 milliUnits) or 10 μl foetal bovine serum (BS) (final concentration: 2.5% BS in PBS; preheated at 56° C. for 30 min) or 10 μl human serum (HS) (final concentration: 2.5% HS in PBS), 40 μl of appropriate concentrations of inhibitor (Diprotin A) solution in PBS (for the exact concentrations, see the legend to FIG. 5), CAM-405 (the substrate of the reaction) at […] (final concentration) and PBS to reach a total volume of 400 μl. The pH of the reaction mixture was 7.5, which is virtually identical to the physiological pH of plasma. The reaction was started by the addition of the enzyme or serum and carried out at 37° C. After 5 hr, 100 μl reaction mixture was taken from the Eppendorf tube and added to 200 μl cold methanol to precipitate the proteins. After 10 min standing on ice, the contents of the tubes were centrifuged and the supernatants analysed by HPLC on a reverse phase column (RP-8, Merck Laboratories). CAM-405 was separated from CAM-212 (the product of the reaction) by a gradient of 50 mM sodium phosphate+5 mM heptane sulfonic acid pH 3.2 (Buffer A) and acetonitrile (Buffer B) as follows: Buffer A: 98%+2% Buffer B, 2 min; linear gradient to 20% Buffer. […]

[1] = Conversion of prodrugs to parent compound by human serum diluted in PBS; format: in vitro ADME; conditions: 50 μM; 20% human serum in PBS (FIG. 6)
Procedure: Human and bovine serum were incubated for 3 hr, 6 hr and/or 24 hr at 37° C. in the presence of 50 μM CAM-405. The sera were diluted in PBS at a final concentration of 0.5, 1, 2.5 or 5%. […] The longer the incubation time, and the higher the serum concentration used, the faster the conversion of CAM-405 to CAM-212 occurred (FIG. 4). As also noted for CD26, HS- and BS-catalysed reaction slowed down in function of time, and was not linearly proportional with serum concentration (FIG. 4). These findings provide again evidence for a pronounced feed-back inhibition of dipeptidyl-peptidase activity in human and bovine serum by the released Val-Pro dipeptide. HS was more efficient in converting CAM-405 to CAM-212 than BS (FIG. 4). Since 1% HS is able to hydrolyse ˜20% of 50 μM CAM-405 within 3 hrs of incubation, it could be calculated that undiluted serum would have been able to convert this prodrug amount to its parent compound at a hundred fold higher speed, that is, within 1.8 min, provided that no feed-back inhibition would have occurred (as expected in the intact organism where release of Pro-Val would immediately result in disappearance from the plasma due to several mechanisms including organ uptake, renal excretion, etc.).
Only a very limited amount of NAP-TSAO (but not D-Pro-NAP-TSAO) had been detected (FIG. 6).
Ten percent BS or HS converted 40 to 70% of PI-2 to PI-1 in one hour (FIG. 10). Two percent BS and HS converted PI-2 to PI-1 by 8% and 25%, respectively. After 4 hrs, 35% and 95% of compound was hydrolyzed by BS and HS, respectively (FIG. 11).
The TSAO derivatives depicted in FIG. 1 can be synthesised as described below. GlyPro-pNA (GP-pNA), Diprotin A and Val-Pro were purchased from Sigma-Aldrich (Bornem, Belgium). CD26 was purified as described before [De Meester et al. J. Immunol. Methods (1996), 189: 99-105]. Foetal bovine serum (FBS) was obtained from Integro (Dieren, The Netherlands). Human serum represented a pooled serum that was derived from 10 healthy volunteers (blood donors). Human lymphocyte CEM cells were derived from the ATCC (Rockville, Md.).

[2] = Solubility in Milli-Q water; format: physicochemical; conditions: 1 mg/ml in Milli-Q water; 2 × 10 sec sonication, 4 days shaking, room temperature; centrifugation, U.V. spectrum
Excerpt: It is also clear that the nature of the dipeptide moiety present on NAP-TSAO markedly affect prodrug solubility in water.

Structure (SMILES) | Conversion % to parent compound by purified CD26, 4 h (purified CD26; purified CD26 1.5 mUnits, 4 h) | Conversion % to parent compound by purified CD26, 24 h (purified CD26; purified CD26 1.5 mUnits, 24 h) | Conversion / substrate activity with purified CD26, in words (purified CD26) | Conversion by 20% human serum, in words [1] | Conversion % to parent compound by purified CD26, 1 h (purified CD26; purified CD26 1.5 mUnits, 1 h) | Spectrum (~265 nm) [2] | % conversion to parent compound by purified CD26, 1 h (purified CD26; purified CD26 1.5 mUnits, 1 h) | % conversion to parent compound by purified CD26, 4 h (purified CD26; purified CD26 1.5 mUnits, 4 h) | % conversion to parent compound by purified CD26, 24 h (purified CD26; purified CD26 1.5 mUnits, 24 h) | % conversion to dipeptide intermediate by purified CD26, 1 h (purified CD26; Table 2 footnote a, purified CD26 1.5 mUnits, 1 h) | % conversion to dipeptide intermediate by purified CD26, 4 h (purified CD26; Table 2 footnote a, purified CD26 1.5 mUnits, 4 h) | % conversion to dipeptide intermediate by purified CD26, 24 h (purified CD26; Table 2 footnote a, purified CD26 1.5 mUnits, 24 h)
Cc1cn(C2OC(CO[Si](C)(C)C(C)(C)C)C3(OS(=O)(=O)C=C3N)C2O[Si](C)(C)C(C)(C)C)c(=O)n(CCCNC(=O)C(NC(=O)C2CCCN2C(=O)C(N)C(C)C)C(C)C)c1=O (stereo not drawn) [CAM-431, H-Val-Pro-Val-NAP-TSAO] | 51% | ~70% | hydrolyse by CD26 | very efficiently converted predominantly to Val-TSAO |  |  |  |  |  |  |  | 
Cc1cn(C2OC(CO[Si](C)(C)C(C)(C)C)C3(OS(=O)(=O)C=C3N)C2O[Si](C)(C)C(C)(C)C)c(=O)n(CCCNC(=O)CNC(=O)[C@@H](N)C(C)C)c1=O (stereo partly drawn) [CAM-422, H-Val-Gly-NAP-TSAO] | 0% | 0% |  | efficiently (but solely) converted to Gly-NAP-TSAO | 0% | 1.886 |  |  |  |  |  | 
Cc1cn(C2OC(CO[Si](C)(C)C(C)(C)C)C3(OS(=O)(=O)C=C3N)C2O[Si](C)(C)C(C)(C)C)c(=O)n(CCCNC(=O)[C@H](C)NC(=O)[C@@H](N)C(C)C)c1=O (stereo partly drawn) [CAM-424, H-Val-Ala-NAP-TSAO] | 6.5% | 35% |  |  | 0% | 0.650 | 0% | 6.5% | 35% |  |  | 
Cc1cn([C@@H]2O[C@H](CO[Si](C)(C)C(C)(C)C)[C@@]3(OS(=O)(=O)C=C3N)[C@H]2O[Si](C)(C)C(C)(C)C)c(=O)n(C)c1=O [m-3T-TSAO, 3-methyl-TSAO-T, reference compound] |  |  |  |  |  | 0.100 |  |  |  |  |  | 
Cc1cn(C2OC(CO[Si](C)(C)C(C)(C)C)C3(OS(=O)(=O)C=C3N)C2O[Si](C)(C)C(C)(C)C)c(=O)n(CCCNC(=O)C(Cc2ccccc2)NC(=O)C(N)C(C)C)c1=O (stereo not drawn) [CAM-428, H-Val-Phe-NAP-TSAO] | 0% | 0% |  | convert to a limited extent | 0% |  |  |  |  |  |  | 
Cc1cn(C2OC(CO[Si](C)(C)C(C)(C)C)C3(OS(=O)(=O)C=C3N)C2O[Si](C)(C)C(C)(C)C)c(=O)n(CCCNC(=O)C(CC(C)C)NC(=O)C(N)C(C)C)c1=O (stereo not drawn) [CAM-426, H-Val-Leu-NAP-TSAO] | 0% | 0% |  | convert to a limited extent | 0% |  |  |  |  |  |  | 
Cc1cn(C2OC(CO[Si](C)(C)C(C)(C)C)C3(OS(=O)(=O)C=C3N)C2O[Si](C)(C)C(C)(C)C)c(=O)n(CCCNC(=O)C2CCCN2C(=O)C(CC(=O)O)NC(=O)C2CCCN2C(=O)C(N)CCCCN)c1=O (stereo not drawn) [CAM-477, H-Lys-Pro-Asp-Pro-NAP-TSAO] |  |  | clearly occurs in two steps |  |  |  | 2.1% | 6.0% | 26% | 88% | 86% | 74%
